From patent publication US10428055B2, “Substituted piperidines having GPR119 agonistic activity” (DONG-A ST CO., LTD., priority 2014, dated 2019) come the findings set out here.

For one test, the target named is T1, Human GPR119 (Homo sapiens, UniProt Q8TDV5).
T1 construct: host or cells: HEK293 (ATCC)
T1 sequence (Q8TDV5 1-335): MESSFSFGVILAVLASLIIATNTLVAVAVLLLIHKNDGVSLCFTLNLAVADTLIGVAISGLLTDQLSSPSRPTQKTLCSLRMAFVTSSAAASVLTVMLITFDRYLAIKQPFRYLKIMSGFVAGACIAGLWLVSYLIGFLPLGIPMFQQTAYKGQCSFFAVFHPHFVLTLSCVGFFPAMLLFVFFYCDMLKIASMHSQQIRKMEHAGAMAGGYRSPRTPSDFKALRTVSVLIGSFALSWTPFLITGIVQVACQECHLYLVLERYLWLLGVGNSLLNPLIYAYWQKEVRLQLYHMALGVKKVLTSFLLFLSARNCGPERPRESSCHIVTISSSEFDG
Kind of test: Human GPR119 activation assay (cAMP, HTRF). The note with it: HEK293 cells transiently expressing human GPR119, relative to maximum effect of OEA; for Emax at 0.001 µM / Emax at 0.01 µM: 1 h, read-out: hGPR119 activation ability (cAMP assay) Relative Response % vs OEA. It is filed as cell-based. An excerpt:
<Experimental Example 1>Human GPR119 activation assay
Human GPR119 was temporarily expressed on cells, thereby quantifying the amount of cyclic adenosine 3′,5′-monophosphate (cAMP) increased upon activating GPR119 by the compound of the present invention, using the product from Cysbio, by a method of HTRF (homogeneous time resolved fluorescence), and such quantification was used to refer to efficacy on GPR119 activation.
Human GPR119 expression vector (Origene) was overexpressed in […] renal epithelial cells (HEK293) (ATCC), and the cells were stabilized for 48 hours. With a solution of 11.1 mM glucose, 0.1% bovine serum albumin, and 0.5 mM IBMX (3-isobutyl-1-methylxanthine) which is a phosphodiesterase inhibitor being added to a KRBH (Krebs-Ringer Bicarbonate HEPES; Hou ZQ. et al., Mol Cell Endocrinol, 2008(291):71-78) buffer, the cells were pre-treated for 10 minutes. Thereafter, the cells were treated with the same solution containing a drug for 60 minutes, then the supernatant was removed, and the increase in cAMP in cells was quantified using a Cysbio cAMP HiRange kit.
As to the maximum efficacy of compounds tested, multiple concentration assessment for the compounds of the present invention was carried out, thereby assessing the relative activation level (%) to the maximum effect of oleoylethanolamide (OEA), an endogenous ligand of GPR119.
(In general: In TR-FRET formats the signal depends on donor and acceptor labels being close together.)

A further test concerns C57BL/6 mouse. Kind of test: Assessment of glucose tolerance improvement effect in mouse. Type of test: in vivo. The note with it: 2 h; 10 mg/kg oral, 30 min before oral glucose 2 g/kg; male C57BL/6 mouse; blood glucose AUC. The protocol: <Experimental Example 2>Assessment of glucose tolerance improvement effect in mouse
As one of anti-diabetic effect indicators, the glucose tolerance improvement effect of the above compounds was evaluated in 7-week male laboratory mouse (C57BL/6 mouse), as the effect of improving postprandial glycemic control ability.
The laboratory mouse was fasted from the day before the experiment for 16-17 hours. The compound of the present invention was orally administered 30 minutes before administrating glucose, and after 30 minutes, a glucose solution (2 g/kg/10 ml) was orally administered. A drug was prepared by suspending in a 10% Gelucire solution. At the times immediately before drug administration, immediately before glucose solution administration, 15 minutes, 30 minutes, 60 minutes, 90 minutes, and 120 minutes after glucose administration, the whole blood glucose levels was measured from tail vein using a blood glucose meter (AccuChek Active, Roche Diagnostics), and the area under the curve of a temporal blood glucose curve was calculated. From the calculated area under the blood glucose curve, the area under the blood glucose curve of a negative control group to which no glucose solution was administered was subtracted, and inhibitory activity against blood glucose increase of a control group to which only the 10% Gelucire solution and glucose solution were administered was calculated as a percentage, thereby evaluating the glucose tolerance improvement efficacy of a drug.
The results are shown in Table 3, in which the glucose tolerance improvement effect represented at a dose of 10 mg/kg was represented by classifying into three groups, under 30%, more than 30% under 40%, and more than 40%. A significant glucose tolerance improvement effect was identified in 22 compounds on which the experiment was carried out, and among those compounds, 16 compounds represented an excellent in vivo activity of 30% inhibitory dose of 10 mg/kg or less. In the following Table 3, A represents an inhibitory activity more than 40%, B represents an inhibitory activity more than 30% under 40% and C represents an inhibitory activity under 30%.

As usually defined, the inhibition in vivo is the drop in the measured response relative to a control, in per cent. High values mean a strong effect, low ones a weak effect. Turning to `Cc1nnc(-c2c(F)cc(OCCCC3CCN(c4ncc(C(F)(F)F)cn4)CC3)cc2F)o1` [Example 46, 2-(2,6-difluoro-4-(3-(1-(5-(trifluoromethyl)pyrimidin-2-yl)piperidin-4-yl)propoxy)phenyl)-5-methyl-1,3,4-oxadiazole], the Emax at 0.001 µM at Human GPR119 (1 nM) was 209%. Further, the Emax at 0.01 µM on Human GPR119 (10 nM) was found to be 239%. The compound further yielded an inhibition in vivo at 10 mg/kg in the test on C57BL/6 mouse greater than 40%.
In the same order, the values of `CCc1cnc(N2CCC(CCCOc3cc(F)c(-c4noc(C(C)(C)CO)n4)c(F)c3)CC2)nc1` [Example 22, 2-(3-(4-(3-(1-(5-ethylpyrimidin-2-yl)piperidin-4-yl)propoxy)-2,6-difluorophenyl)-1,2,4-oxadiazol-5-yl)-2-methylpropan-1-ol] are 54.9%, 178% and 30 to 40%.
In the same order, the values of `Cc1nnc(-c2c(F)cc(OCCCC3CCN(c4nc(C(C)C)no4)CC3)cc2F)o1` [Example 55, 5-(4-(3-(3,5-difluoro-4-(5-methyl-1,3,4-oxadiazol-2-yl)phenoxy)propyl)piperidin-1-yl)-3-isopropyl-1,2,4-oxadiazole] are 168%, 266% and 30 to 40%.
In the same order, the values of `CC(C)c1noc(N2CCC(CCCOc3cc(F)c(-c4noc(C(C)C)n4)c(F)c3)CC2)n1` [Example 40, 3-(2,6-difluoro-4-(3-(1-(3-isopropyl-1,2,4-oxadiazol-5-yl)piperidin-4-yl)propoxy)phenyl)-5-isopropyl-1,2,4-oxadiazole] are 63.7%, 206% and 30 to 40%.
As for `CCc1cnc(N2CCC(CCCOc3cc(F)c(-c4noc(C(C)C)n4)c(F)c3)CC2)nc1` [Example 15, 3-(4-(3-(1-(5-ethylpyrimidin-2-yl)piperidin-4-yl)propoxy)-2,6-difluorophenyl)-5-isopropyl-1,2,4-oxadiazole], the “hGPR119 activation ability (cAMP assay) Relative Response % vs OEA” value was 87.7% on Human GPR119 (1 nM) and 183.8% at Human GPR119 (10 nM). In the test on C57BL/6 mouse, this compound yielded an inhibition in vivo at 10 mg/kg greater than 40%.
Consider `CC(C)c1nc(-c2c(F)cc(OCCCC3CCN(c4ncc(Cl)cn4)CC3)cc2F)no1` [Example 28, 3-(4-(3-(1-(5-chloropyrimidin-2-yl)piperidin-4-yl)propoxy)-2,6-difluorophenyl)-5-isopropyl-1,2,4-oxadiazole], for which the Emax at 0.001 µM at Human GPR119 (1 nM) was 23.8%. Also, at Human GPR119 (10 nM), the Emax at 0.01 µM was determined as 115%. Moreover, in the test on C57BL/6 mouse, the inhibition in vivo at 10 mg/kg is less than 30%.
In the same order, the values of `CCc1cnc(N2CCC(CCCOc3cc(F)c(-c4noc([C@@H](O)CC)n4)c(F)c3)CC2)nc1` [Example 19, (S)-1-(3-(4-(3-(1-(5-ethylpyrimidin-2-yl)piperidin-4-yl)propoxy)-2,6-difluorophenyl)-1,2,4-oxadiazol-5-yl) propan-1-ol] are 46.5%, 313% and 30 to 40%.
In the same order, the values of `CCCc1cnc(N2CCC(CCCOc3cc(F)c(-c4noc(C(C)C)n4)c(F)c3)CC2)nc1` [Example 23, 3-(2,6-difluoro-4-(3-(1-(5-propylpyrimidin-2-yl)piperidin-4-yl)propoxy)phenyl)-5-isopropyl-1,2,4-oxadiazole] are 78.3%, 141% and greater than 40%.
In the same order, the values of `CCc1cnc(N2CCC(CCCOc3cc(F)c(C4=NC[C@@H](C)O4)c(F)c3)CC2)nc1` [Example 5, (R)-2-(4-(3-(1-(5-ethylpyrimidin-2-yl)piperidin-4-yl)propoxy)-2,6-difluorophenyl)-5-methyl-4,5-dihydrooxazole] are 44.6%, 150% and greater than 40%.
As to `CCc1cnc(N2CCC(CCCOc3cc(F)c(C4=NC[C@H](CO)O4)c(F)c3)CC2)nc1` [Example 7, (R)-(2-(4-(3-(1-(5-ethylpyrimidin-2-yl)piperidin-4-yl)propoxy)-2,6-difluorophenyl)-4,5-dihydrooxazol-5-yl)methanol], the Emax at 0.001 µM on Human GPR119 (1 nM) worked out at 51.3%. The Emax at 0.01 µM on Human GPR119 (10 nM) is 170%. In the test with C57BL/6 mouse, this compound registered an inhibition in vivo at 10 mg/kg of less than 30%.
In the case of `CC(C)c1nnc(-c2c(F)cc(OCCCC3CCN(c4cnc(Cl)cn4)CC3)cc2F)o1` [Example 51, 2-(4-(3-(1-(5-chloropyrazin-2-yl)piperidin-4-yl)propoxy)-2,6-difluorophenyl)-5-isopropyl-1,3,4-oxadiazole], at Human GPR119 (1 nM), the Emax at 0.001 µM was 90.7%. Further, at Human GPR119 (10 nM), the Emax at 0.01 µM was determined as 180%. For the same compound, the inhibition in vivo at 10 mg/kg in the test with C57BL/6 mouse was greater than 40%.
In the same order, the values of `CC(C)c1nc(-c2c(F)cc(OCCCC3CCN(c4ncc(C(F)(F)F)cn4)CC3)cc2F)no1` [Example 25, 3-(2,6-difluoro-4-(3-(1-(5-(trifluoromethyl)pyrimidin-2-yl)piperidin-4-yl)propoxy)phenyl)-5-isopropyl-1,2,4-oxadiazole] are 159%, 274% and less than 30%.
In the same order, the values of `CCc1nnc(-c2c(F)cc(OCCCC3CCN(c4ncc(C(F)(F)F)cn4)CC3)cc2F)o1` [Example 47, 2-(2,6-difluoro-4-(3-(1-(5-(trifluoromethyl)pyrimidin-2-yl)piperidin-4-yl)propoxy)phenyl)-5-ethyl-1,3,4-oxadiazole] are 66%, 218% and greater than 40%.
In the same order, the values of `CCc1cnc(N2CCC(CCCOc3cc(F)c(-c4nnc(CC)o4)c(F)c3)CC2)nc1` [Example 43, 2-ethyl-5-(4-(3-(1-(5-ethylpyrimidin-2-yl)piperidin-4-yl)propoxy)-2,6-difluorophenyl)-1,3,4-oxadiazole] are 260%, 538% and greater than 40%.
`CCCCCc1cnc(N2CCC(CCCOc3cc(F)c(-c4noc(C(C)C)n4)c(F)c3)CC2)nc1` [Example 24, 3-(2,6-difluoro-4-(3-(1-(5-pentylpyrimidin-2-yl)piperidin-4-yl)propoxy)phenyl)-5-isopropyl-1,2,4-oxadiazole]: the Emax at 0.001 µM at Human GPR119 (1 nM) was found to be 132%. At Human GPR119 (10 nM), the Emax at 0.01 µM came to 309%. In the test on C57BL/6 mouse, the inhibition in vivo at 10 mg/kg is less than 30%.
In the same order, the values of `CC(C)c1noc(N2CCC(CCCOc3cc(F)c(-c4nnc(C(C)C)o4)c(F)c3)CC2)n1` [Example 57, 5-(4-(3-(3,5-difluoro-4-(5-isopropyl-1,3,4-oxadiazol-2-yl)phenoxy)propyl)piperidin-1-yl)-3-isopropyl-1,2,4-oxadiazole] are 255%, 395% and 30 to 40%.
As for `CC(C)c1nnc(-c2c(F)cc(OCCCC3CCN(c4ncc(F)cn4)CC3)cc2F)s1` [Example 63, 2-(2,6-difluoro-4-(3-(1-(5-fluoropyrimidin-2-yl)piperidin-4-yl)propoxy)phenyl)-5-isopropyl-1,3,4-thiadiazole], on Human GPR119 (1 nM), the Emax at 0.001 µM was 114%. Moreover, the Emax at 0.01 µM on Human GPR119 (10 nM) worked out at 228%.
